In patent US8865697B2, “Crystalline (6R,7R)-7-{2-(5-amino-[1,2,4] thiadiazol-3-yl)-2-[(Z)-trityloxyimino]-acetylamino}-3-[(R)-1′-tert-butoxycarbonyl-2-oxo-[1,3′]bipyrrolidinyl-(3E)-ylidenemethyl]-8-oxo-5-thia-1-aza-bicyclo[4.2.0]oct-2-ene-2-carboxylic acid benzhydryl ester; its manufacture and use” (Basilea Pharmaceutica AG, priority 2008, dated 2014):

Test: Solubility in methylene chloride
Format: physicochemical
Settings: in methylene chloride at about 25° C.
Description: In methylene chloride, on the other hand, the DMSO solvate according to the present invention is readily soluble at temperatures in the range as indicated in the preceding paragraph (solubility about 70 g/l at about 25° C.). […] Therefore dissolving the DMSO solvate methylene chloride results in that the compound of formula (I) precipitates from this solution. This precipitate of the compound of formula (I) is generally again of greater purity than the DMSO solvate dissolved, and of such a particle size, that it can very fast be filtered or centrifuged off from the solvent. Furthermore, the precipitate of compound of formula (I) is generally in substantially crystalline form when precipitated from methylene chloride. More particularly, the precipitate comprises the compound of formula (I) at least partially in form of single-crystals.

Compound | solubility
CC(C)(C)OC(=O)N1CC[C@@H](N2CC/C(=C\C3=C(C(=O)OC(c4ccccc4)c4ccccc4)N4C(=O)[C@@H](NC(=O)/C(=N\OC(c5ccccc5)(c5ccccc5)c5ccccc5)c5nsc(N)n5)[C@H]4SC3)C2=O)C1 [compound of formula (I), (6R,7R)-7-{2-(5-Amino-[1,2,4]thiadiazol-3-yl)-2-[(Z)-trityloxyimino]-acetylamino}-3-[(R)-1′-tert-butoxycarbonyl-2-oxo-[1,3′]bipyrrolidinyl-3E-ylidenemethyl]-8-oxo-5-thia-1-aza-bicyclo[4.2.0]oct-2-ene-2-carboxylic acid benzhydryl ester] | about 8 g/l
CC(C)(C)OC(=O)N1CC[C@@H](N2CC/C(=C\C3=C(C(=O)OC(c4ccccc4)c4ccccc4)N4C(=O)[C@@H](NC(=O)/C(=N\OC(c5ccccc5)(c5ccccc5)c5ccccc5)c5nsc(N)n5)[C@H]4SC3)C2=O)C1 [DMSO solvate] | about 70 g/l
